The experiment deals with human PDE10A2 (Homo sapiens (Human), UniProt Q9Y233). Briefly: PDE10 fluorescence polarization (IMAP FP) inhibition assay. It is filed as biochemical. The settings on record: FAM-labeled cAMP 50 nM, room temperature. How it is done:
The activity of the compounds in accordance with the present invention as PDE10 inhibitors may be readily determined without undue experimentation using a fluorescence polarization (FP) methodology that is well known in the art (Huang, W., et al., J. Biomol Screen, 2002, 7: 215).
In a typical experiment the PDE10 inhibitory activity of the compounds of the present invention was determined in accordance with the following experimental method. PDE10A2 was amplified from human fetal brain cDNA (Clontech, Mountain View, Calif.) using a forward primer corresponding to nucleotides 56-77 of human PDE10A2 (Accession No. AF127480, Genbank Identifier 4894716), containing a Kozak consensus sequence, and a reverse primer corresponding to nucleotides 2406-2413 of human PDE10A2 (Accession No. AF127480, Genbank Identifier 4894716). Amplification with Easy-A polymerase (Stratagene, La Jolla, Calif.) was 95° C. for 2 minutes followed by thirty three cycles of 95° C. for 40 seconds, 55° C. for 30 seconds, and 72° C. for 2 minutes 48 seconds. Final extension was 72° C. for 7 minutes. The PCR product was TA cloned into pcDNA3.2-TOPO (Invitrogen, Carlsbad, Calif.) according to standard protocol. AD293 cells with 70-80% confluency were transiently transfected with human PDE10A2/pcDNA3.2-TOPO using Lipofectamine 2000 according to manufacturer specifications (Invitrogen, Carlsbad, Calif.). Cells were harvested 48 hours post-transfection and lysed by sonication (setting 3, 10×5 sec pulses) in a buffer containing 20 mM HEPES, 1 mM EDTA and protease inhibitor cocktail (Roche). Lysate was collected by centrifugation at 75,000 xg for 20 minutes. Supernatant containing the cytoplasmic fraction was used for evaluation of PDE10A2 activity. The fluorescence polarization assay for cyclic nucleotide phosphodiesterases was performed using an IMAP® FP kit supplied by Molecular Devices, Sunnyvale, Calif. (product # R8139). IMAP® technology has been applied previously to phosphodiesterase assays (Huang, W., et al., J. Biomol Screen, 2002, 7: 215). Assays were performed at room temperature in 384-well microtiter plates with an incubation volume of 20.2 μL. Solutions of test compounds were prepared in DMSO and serially diluted with DMSO to yield 8 μL of each of 10 solutions differing by 3-fold in concentration, at 32 serial dilutions per plate. 100% inhibition is determined using a known PDE10 inhibitor, which can be any compound that is present at 5,000 times its Ki value in the assay described as follows, such as papaverine (see Siuciak, et al. Neuropharmacology (2006) 51:386-396; Becker, et al. Behav Brain Res (2008) 186(2):155-60; Threlfell, et al., J Pharmacol Exp Ther (2009) 328(3):785-795), 2-{4-[pyridin-4-yl-1-(2,2,2-trifluoroethyl)-1H-pyrazol-3-yl]phenoxymethyl}quinoline succinic acid or 2-[4-(1-methyl-4-pyridin-4-yl-1H-pyrazol-3-yl)-phenoxymethyl]quinoline succinic acid (see Schmidt, et al. J Pharmacol Exp Ther (2008) 325:681-690; Threlfell, et al., J Pharmacol Exp Ther (2009) 328(3): 785-795). 0% of inhibition is determined by using DMSO (1% final concentrations).
A Labcyte Echo 555 (Labcyte, Sunnyvale, Calif.) is used to dispense 200 nL from each well of the titration plate to the 384 well assay plate. A solution of enzyme (1/1600 dilution from aliquots; sufficient to produce 20% substrate conversion) and a separate solution of FAM-labeled cAMP PDE from Molecular Devices (product # R7506), at a final concentration of 50 nM are made in the assay buffer (10 mM Tris HCl, pH 7.2, 10 mM MgCl2, 0.05% NaN3 0.01% Tween-20, and 1 mM DTT). The enzyme and the substrate are then added to the assay plates in two consecutive additions of 10 μL, and then shaken to mix. The reaction is allowed to proceed at room temperature for 30 minutes. A binding solution is then made from the kit components, comprised of 80% Solution A, 20% Solution B and binding reagent at a volume of 1/600 the total binding solution. […]
A general note: Polarisation of emitted light reports the rotation of a fluorescent probe.

human PDE10A2, sequence (Q9Y233 267-1055): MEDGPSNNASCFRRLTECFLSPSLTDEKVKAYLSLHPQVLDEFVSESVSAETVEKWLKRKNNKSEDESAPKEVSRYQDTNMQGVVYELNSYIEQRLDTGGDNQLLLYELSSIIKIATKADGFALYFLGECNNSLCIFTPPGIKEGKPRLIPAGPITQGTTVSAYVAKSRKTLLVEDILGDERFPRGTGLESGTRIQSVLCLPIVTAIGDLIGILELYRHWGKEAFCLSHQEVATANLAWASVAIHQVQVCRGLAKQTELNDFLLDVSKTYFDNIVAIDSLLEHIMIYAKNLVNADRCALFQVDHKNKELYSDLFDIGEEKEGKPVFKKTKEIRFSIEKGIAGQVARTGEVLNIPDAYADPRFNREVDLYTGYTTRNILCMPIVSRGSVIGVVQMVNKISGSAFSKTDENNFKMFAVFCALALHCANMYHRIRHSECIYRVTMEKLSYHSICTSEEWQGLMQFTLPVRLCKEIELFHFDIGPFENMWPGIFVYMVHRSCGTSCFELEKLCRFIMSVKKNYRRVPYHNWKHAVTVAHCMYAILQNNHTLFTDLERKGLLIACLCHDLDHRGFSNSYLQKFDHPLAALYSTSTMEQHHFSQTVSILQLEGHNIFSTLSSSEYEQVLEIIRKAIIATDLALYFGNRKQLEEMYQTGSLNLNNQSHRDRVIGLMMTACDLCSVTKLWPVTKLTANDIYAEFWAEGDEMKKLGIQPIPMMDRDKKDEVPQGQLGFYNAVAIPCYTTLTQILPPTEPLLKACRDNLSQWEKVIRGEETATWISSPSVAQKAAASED

Take `Cc1nc([C@@H]2C[C@H]2c2cn3ccc(F)cc3n2)cc(-n2nc(C)nc2C)n1` (relative stereo) [Example 7, 2-((trans)-2-(6-(3,5-dimethyl-1H-1,2,4-triazol-1-yl)-2-methylpyrimidin-4-yl)cyclopropyl)-7-fluoroimidazo[1,2-a]pyridine]: the Ki (in general, the equilibrium dissociation constant of an inhibitor or competing ligand from its target) was 13 nM.

With `Cc1ccn2cc([C@@H]3C[C@H]3c3cc(-n4nc(C)nc4C)nc(C)n3)nc2c1` (relative stereo) [Example 4, 2-((trans)-2-(6-(3,5-dimethyl-1H-1,2,4-triazol-1-yl)-2-methylpyrimidin-4-yl)cyclopropyl)-7-methylimidazo[1,2-a]pyridine], the Ki came to 44 nM.

As for `Cc1nc([C@@H]2C[C@H]2c2cn3c(C)cccc3n2)cc(-n2nc(C)nc2C)n1` (relative stereo) [Example 2, 2-((trans)-2-(6-(3,5-dimethyl-1H-1,2,4-triazol-1-yl)-2-methylpyrimidin-4-yl)cyclopropyl)-5-methylimidazo[1,2-a]pyridine], the Ki is 8.3 nM. In turn, `Cc1nc([C@@H]2C[C@H]2c2nc3ccccn3c2C)cc(-n2nc(C)nc2C)n1` (relative stereo) [Example 9, 2-((trans)-2-(6-(3,5-dimethyl-1H-1,2,4-triazol-1-yl)-2-methylpyrimidin-4-yl)cyclopropyl)-3-methylimidazo[1,2-a]pyridine] registered a Ki of 2.1 nM. `Cc1nc([C@H]2C[C@@H]2c2cn3ccccc3n2)cc(-n2nc(C)nc2C)n1` (stereo in doubt) [Example 1, 2-((1S,2S)-2-(6-(3,5-dimethyl-1H-1,2,4-triazol-1-yl)-2-methylpyrimidin-4-yl)cyclopropyl)imidazo[1,2-a]pyridine]: the Ki was found to be 5.8 nM. The value for `Cc1nc([C@@H]2C[C@H]2c2nc3ccccn3c2I)cc(-n2nc(C)nc2C)n1` (relative stereo) [Example 8, 2-((trans)-2-(6-(3,5-dimethyl-1H-1,2,4-triazol-1-yl)-2-methylpyrimidin-4-yl)cyclopropyl)-3-iodoimidazo[1,2-a]pyridine] was 9 nM. The value for `Cc1ccc2nc([C@@H]3C[C@H]3c3cc(-n4nc(C)nc4C)nc(C)n3)cn2c1` (relative stereo) [Example 3, 2-((trans)-2-(6-(3,5-dimethyl-1H-1,2,4-triazol-1-yl)-2-methylpyrimidin-4-yl)cyclopropyl)-6-methylimidazo[1,2-a]pyridine] was 24 nM; that for `Cc1nc([C@@H]2C[C@H]2c2nc3ccccn3c2C#N)cc(-n2nc(C)nc2C)n1` (relative stereo) [Example 11, 2-((trans)-2-(6-(3,5-dimethyl-1H-1,2,4-triazol-1-yl)-2-methylpyrimidin-4-yl)cyclopropyl)imidazo[1,2-a]pyridine-3-carbonitrile] was > 75 nM. The value for `Cc1nc([C@@H]2C[C@H]2c2cn3cccc(C)c3n2)cc(-n2nc(C)nc2C)n1` (relative stereo) [Example 5, 2-((trans)-2-(6-(3,5-dimethyl-1H-1,2,4-triazol-1-yl)-2-methylpyrimidin-4-yl)cyclopropyl)-8-methylimidazo[1,2-a]pyridine] was > 75 nM. Take `Cc1nc([C@@H]2C[C@H]2c2cn3cccc(F)c3n2)cc(-n2nc(C)nc2C)n1` (relative stereo) [Example 6, 2-((trans)-2-(6-(3,5-dimethyl-1H-1,2,4-triazol-1-yl)-2-methylpyrimidin-4-yl)cyclopropyl)-8-fluoroimidazo[1,2-a]pyridine]: the inhibition constant (Ki) was > 75 nM. Turning to `C=Cc1c([C@@H]2C[C@H]2c2cc(-n3nc(C)nc3C)nc(C)n2)nc2ccccn12` (relative stereo) [Example 10, 2-((trans)-2-(6-(3,5-dimethyl-1H-1,2,4-triazol-1-yl)-2-methylpyrimidin-4-yl)cyclopropyl)-3-vinylimidazo[1,2-a]pyridine], the Ki stood at 3.8 nM.

(Values after patent US9359348B2, “Cyclopropyl imidazopyridine PDE10 inhibitors” (Merck Sharp & Dohme Corp., priority 2012, dated 2016).)
